According to patent US20170065564A1, “BIS-CYCLIC GUANIDINE COMPOUND COMPOSITIONS, METHODS OF USE AND TREATMENT THEREOF” (University of South Florida, priority 2014, published 2017):
In brackets after ≈: the same amount, converted by molar mass.

Key:
Enterobacter cloacae [1] = assay: MIC micro broth dilution assay; assay type: cell-based; conditions: for stacked score activity, 100/MIC, E: E. cloacae; for MIC: Enterobacter cloacae
Outline: (§1)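 Multidrug-resistant clinical ESKAPE isolates were grown overnight (Gram-positives in TSB, Gram-negatives in LB), diluted 1:1,000 and exposed to decreasing compound concentrations in DMF (≤2.0% DMF).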

Enterococcus faecium [2] = assay: MIC micro broth dilution assay; assay type: cell-based; conditions: for stacked score activity, 100/MIC, E: E. faecium; for MIC: Enterococcus faecium
Outline: as §1

Acinetobacter baumannii = assay: Minimal bactericidal concentration (MBC) assay; assay type: cell-based; conditions: Acinetobacter baumannii, purified compound; read-out: MBC90
Protocol: (§2) Briefly, compound was washed by centrifugation and serial dilution, before plating on Tryptic Soy Agar (TSA). Plates were incubated for 24 hours at 37° C. and cell viability assessed by determining CFU/ml at each concentration, for every compound. Percent recovery was then determined compared to CFU/ml from no drug controls. All concentrations and controls were tested using three biological replicates, alongside two technical replicates for each data point.

Enterobacter cloacae [3] = assay: Minimal bactericidal concentration (MBC) assay; assay type: cell-based; conditions: Enterobacter cloacae; purified compound; read-out: MBC90
Protocol: as §2

Enterococcus faecium [4] = assay: Minimal bactericidal concentration (MBC) assay; assay type: cell-based; conditions: Enterococcus faecium, purified compound; read-out: MBC90
Protocol: as §2

Klebsiella pneumoniae = assay: Minimal bactericidal concentration (MBC) assay; assay type: cell-based; conditions: Klebsiella pneumoniae, purified compound; read-out: MBC90
Protocol: as §2

Pseudomonas aeruginosa = assay: Minimal bactericidal concentration (MBC) assay; assay type: cell-based; conditions: Pseudomonas aeruginosa; purified compound; read-out: MBC90
Protocol: as §2

Staphylococcus aureus = assay: Minimal bactericidal concentration (MBC) assay; assay type: cell-based; conditions: Staphylococcus aureus, purified compound; read-out: MBC90
Protocol: as §2

[5] = test system: Staphylococcus aureus (USA300 strain FPR3757); assay: Murine model of lethal peritonitis; assay type: in vivo, mice; conditions: 2× MIC, I.M., 1 h post-infection, six mice per group
Protocol: Using MRSA as a representative ESKAPE organism, we infected mice with 1×10^8 bacterial cells in 5% mucin via intraperitoneal injection. At 1 h post-infection, mice were then I.V. injected with either vancomycin (positive control), or I.M. with our front runner compounds.
Six mice per group were injected with 1×10^8 CFU ml^−1 of Staphylococcus aureus (USA300 strain FPR3757) in PBS containing 5% mucin. […] Mice were monitored twice daily for five days to assess mortality. The clinical endpoint of this study was when the mice reached a pre-moribund state. Characteristics of pre-moribund state include: hunched posture, rapid, shallow and/or labored breathing, ruffled fur, lethargy, failure to respond to stimuli, soiled anogenital area, paralysis, paresis, head tilt, circling, vocalizations, non-purposeful movements and/or were unable to eat or drink. Those mice reaching this state prior to the completion of the 5 day infection period were euthanized. The number of mice surviving between control and treatment groups was compared and analyzed for statistical significance using a log rank test.

A. baumannii = assay: Resistance serial passage assay; assay type: cell-based, Acinetobacter baumannii; conditions: 8 passages, concentration doubled each day
Protocol: ESKAPE pathogens were grown overnight in liquid media at 37° C. These cultures were then diluted 1:100 in fresh media, and seeded into a 96-well plate. Lead bis-cyclic guanidines or control agents were added to respective wells at half MIC concentrations. Plates were then incubated for 24 hours at 37° C., with bacteria removed from these cultures on the following day, to inoculate fresh media (1:100 dilution) containing compounds at a 2-fold higher concentrations. These were then grown overnight, and the procedure repeated for a total of eight days. […] Each experiment was performed in triplicate, yielding identical results.

E. cloacae = assay type: cell-based, Enterobacter cloacae; conditions: 8 passages, concentration doubled each day
Protocol: ESKAPE pathogens were grown overnight in liquid media at 37° C. These cultures were then diluted 1:100 in fresh media, and seeded into a 96-well plate. Lead bis-cyclic guanidines or control agents were added to respective wells at half MIC concentrations. […] These were then grown overnight, and the procedure repeated for a total of eight days.

[6] = panel of E. cloacae clinical isolates

| SMILES | stacked score activity, 100/MIC, E (Enterobacter cloacae [1]) | MIC (Enterobacter cloacae [1]; E. cloacae isolate 1404) [µM] | MIC (Enterobacter cloacae [1]; E. cloacae isolate 1405) [µM] | MIC (Enterobacter cloacae [1]; E. cloacae isolate 1430) [µM] | MIC (Enterobacter cloacae [1]; E. cloacae isolate 1431) [µM] | MIC (Enterobacter cloacae [1]; E. cloacae isolate 1445) [µM] | MIC (Enterobacter cloacae [1]; E. cloacae isolate 1446) [µM] | MIC (Enterobacter cloacae [1]; E. cloacae isolate 1447) [µM] | MIC (Enterobacter cloacae [1]; E. cloacae isolate 1448) [µM] | MIC (Enterobacter cloacae [1]; E. cloacae isolate 1454) [µM] | MIC (Enterobacter cloacae [1]; E. cloacae isolate 1455) [µM] | MIC (Enterobacter cloacae [1]; purified compound, Table 1) [µM] | concentration inhibiting 90% of isolates (Enterobacter cloacae [1]; [6]) [µM] | stacked score activity, 100/MIC, E (Enterococcus faecium [2]) | MIC (Enterococcus faecium [2]; E. faecium isolate 1406) [µM] | MIC (Enterococcus faecium [2]; E. faecium isolate 1407) [µM] | MIC (Enterococcus faecium [2]; E. faecium isolate 1432) [µM] | MIC (Enterococcus faecium [2]; E. faecium isolate 1438) [µM] | MIC (Enterococcus faecium [2]; E. faecium isolate 1439) [µM] | MIC (Enterococcus faecium [2]; E. faecium isolate 1443) [µM] | also measured |
| --- | --- | --- | --- | --- | --- | --- | --- | --- | --- | --- | --- | --- | --- | --- | --- | --- | --- | --- | --- | --- | --- |
| CCCCCCCN1C(=N)N(CCCC[C@H]2CNC(=N)N2CCc2cccc(C(F)(F)F)c2)C[C@@H]1CCCC [Compound 1] | 20 | 2 (≈ 1.1 µg/mL) | 5 (≈ 2.75 µg/mL) | 3 (≈ 1.65 µg/mL) | 5 (≈ 2.75 µg/mL) | 3 (≈ 1.65 µg/mL) | 7 (≈ 3.86 µg/mL) | 5 (≈ 2.75 µg/mL) | 3 (≈ 1.65 µg/mL) | 3 (≈ 1.65 µg/mL) | 2 (≈ 1.1 µg/mL) | 1.63 (≈ 0.898 µg/mL) | 10 | 20 | 2 (≈ 1.1 µg/mL) | 2 (≈ 1.1 µg/mL) | 2 (≈ 1.1 µg/mL) | 2 (≈ 1.1 µg/mL) | 2 (≈ 1.1 µg/mL) | 2 (≈ 1.1 µg/mL) | MIC (Enterococcus faecium [2]; E. faecium isolate 1444): 2 µM (≈ 1.1 µg/mL); MIC (Enterococcus faecium [2]; E. faecium isolate 1449): 2 µM (≈ 1.1 µg/mL); MIC (Enterococcus faecium [2]; E. faecium isolate 1450): 2 µM (≈ 1.1 µg/mL); MIC (Enterococcus faecium [2]; E. faecium isolate 1451): 2 µM (≈ 1.1 µg/mL); MIC (Enterococcus faecium [2]; purified compound, Table 1): 1.63 µM (≈ 0.898 µg/mL); MBC (Acinetobacter baumannii): 3.05 µM (≈ 1.68 µg/mL); MBC (Enterobacter cloacae [3]): 3.14 µM (≈ 1.73 µg/mL); MBC (Enterococcus faecium [4]): 1.87 µM (≈ 1.03 µg/mL); MBC (Klebsiella pneumoniae): 2.36 µM (≈ 1.3 µg/mL); MBC (Pseudomonas aeruginosa): 4.01 µM (≈ 2.21 µg/mL); MBC (Staphylococcus aureus): 3.09 µM (≈ 1.7 µg/mL); survival of infected mice over 5 day infection period [5]: all mice survived |
| CCCC[C@H]1CN(CCCC[C@H]2CNC(=N)N2CCc2cccc(C(F)(F)F)c2)C(=N)N1CCCCC1CCCCC1 [Compound 2, (S)-4-butyl-3-(4-cyclohexylbutyl)-1-(4-((S)-2-imino-3-(3-(trifluoromethyl)phenethyl)imidazolidin-4-yl)butyl)imidazolidin-2-imine] | 20 | 2 (≈ 1.18 µg/mL) | 2 (≈ 1.18 µg/mL) | 2 (≈ 1.18 µg/mL) | 2 (≈ 1.18 µg/mL) | 2 (≈ 1.18 µg/mL) | 7 (≈ 4.14 µg/mL) | 3 (≈ 1.77 µg/mL) | 3 (≈ 1.77 µg/mL) | 2 (≈ 1.18 µg/mL) | 2 (≈ 1.18 µg/mL) | 1.52 (≈ 0.898 µg/mL) | 5 | 50 | 2 (≈ 1.18 µg/mL) | 2 (≈ 1.18 µg/mL) | 2 (≈ 1.18 µg/mL) | 2 (≈ 1.18 µg/mL) | 2 (≈ 1.18 µg/mL) | 2 (≈ 1.18 µg/mL) | concentration inhibiting 70% of strains (Enterobacter cloacae [1]; [6]): 2 µM; MIC (Enterococcus faecium [2]; E. faecium isolate 1444): 2 µM (≈ 1.18 µg/mL); MIC (Enterococcus faecium [2]; E. faecium isolate 1449): 2 µM (≈ 1.18 µg/mL); MIC (Enterococcus faecium [2]; E. faecium isolate 1450): 2 µM (≈ 1.18 µg/mL); MIC (Enterococcus faecium [2]; E. faecium isolate 1451): 2 µM (≈ 1.18 µg/mL); MIC (Enterococcus faecium [2]; purified compound, Table 1): 1.52 µM (≈ 0.898 µg/mL); MBC (Acinetobacter baumannii): 2.83 µM (≈ 1.67 µg/mL); MBC (Enterobacter cloacae [3]): 4.15 µM (≈ 2.45 µg/mL); MBC (Enterococcus faecium [4]): 1.66 µM (≈ 0.981 µg/mL); MBC (Klebsiella pneumoniae): 3.98 µM (≈ 2.35 µg/mL); MBC (Pseudomonas aeruginosa): 2.32 µM (≈ 1.37 µg/mL); MBC (Staphylococcus aureus): 2.03 µM (≈ 1.2 µg/mL); increase in MIC after serial passage (A. baumannii): 8 fold; increase in MIC after serial passage (E. cloacae): 8 fold; survival of infected mice over 5 day infection period [5]: only a single mouse succumbing to infection after the first day |
